Results on 19 compounds are retold here after EP1137645B1, “ALPHA-METHYLBENZYL-CONTAINING THIOUREA INHIBITORS OF HERPES VIRUSES CONTAINING A […] GROUP” (Wyeth, priority 1998, dated 2000).

≈ marks a conversion by molar mass, not a printed value. Where two headings read alike, the source gives them in different places.

The subject of one test is HSV- I. The experiment in a line: HSV antiviral (ELISA) assay. The class given is cell-based. Particulars: read-out: IC50 (ug/ml) HSV. The method, then: Vero cells (ATCC #CCL-81) are plated on 96-well tissue culture plates at 3.5x10^4 cells per 100µl tissue culture DMEM (Dulbecco's modified Eagle media) supplemented with 2% fetal bovine serum (FBS) in each well. After overnight incubation @ 37°C (in 5% CO2) and 30 minutes prior to infection with HSV- I (multiplicity of infection equal to 0.006), cells are either untreated, or treated with test compound (multiple concentrations) or reference standard drug control. After approximately 24 hours post-infection incubation @ 37°C (in 5% CO2), cells are fixed for ELISA assay. The primary antibody is murine anti-HSV glycoprotein D monoclonal primary antibody and the secondary antibody is goat anti-mouse IgG linked to β-galactosidase. Thus the extent of viral replication is determined by assessing β-galactosidase activity by quantifying the generation of the 4-methyl umbelliferone fluorescent cleavage product after addition of the methyl umbelliferyl-β-D-galactoside (Sigma #M1633) substrate on a microfluorimeter (365nm for excitation and 450nm for emission). Antiviral activity (IC50) of the test compound is determined by comparing the flourescence obtained in absence of compound to that obtained in the presence of compound.
A general note: An ELISA detects its analyte on a solid surface through an enzyme-linked reagent.

In test [1] the test system is HCMV recombinant mutant virus whose genome contains the prokaryotic beta-glucuronidase gene. Nature of the test: microbe, parasite or virus in culture. In kind it is cell-based, human cytomegalovirus. As to conditions: Human betaherpesvirus 5, Fibroblast. The text has this: Microtiter plate assay. Ninety-six well plate cultures of human foreskin fibroblasts are infected in the presence of inhibitor compound with a HCMV recombinant mutant virus whose genome contains the prokaryotic beta-glucuronidase gene (Jefferson, R. A., S. M. Burgess, and D. Hirsh. 1986. Beta-glucuronidase from Escherichia coli as a gene fusion marker. Proc. Natl. Acad. Sci. USA 83:8447-8451) whose expression is controlled by a viral promoter. An example of such a virus is RV145 (Jones, T. R., V. P. Muzithras, and Y. Gluzman. 1991. Replacement mutagenesis of the human cytomegalovirus genome: US10 and US11 gene products are nonessential. J. Virol. 65:5860-5872). Since it is under the control of a viral promoter, beta-glucuronidase expression is an indirect indicator of growth and replication of HCMV in this assay. At 96 hours post-infection, the infected cell lysates are prepared (using 50mM sodium phosphate [pH7.0] containing 0.1% Triton X-100 and 0.1% sarkosyl) and assayed for beta-glucuronidase activity using a substrate for the enzyme which when cleaved yields either a product which can be measured colorimetrically in a spectrophotometer or fluorescently in a microfluorimeter. Examples of such substrates are p-nitrophenyl-beta-D-glucuronide and methylumbelliferylglucuronide, respectively. The presence of an antiviral compound is indicated by the reduced expression of the HCMV genome resident beta-glucuronidase gene, compared to the absence of inhibitor. […] Data from this assay generated using varying amounts of inhibitor compound is also used to estimate the IC50 of an inhibitor compound.

A further test deals with VZV strain Ellen. The experiment in a line: VZV antiviral (ELISA) assay. In kind it is cell-based. The protocol: For the generation of stock VZV to be used in the assay, VZV strain Ellen (ATCC #VR-1367) is used to infect human foreskin fibroblast (HFF) cells at low multiplicity (less than 0.1) and incubated overnight at 37°C in 5% CO2. After the overnight incubation, the mixture of uninfected and VZV-infected HFF infected cells are then harvested and added to each well of 96-well plates (3.5x10^4 cells in 100 µl DMEM supplemented with 2% FBS) which contain test compound or the reference standard drug control (in 100µl DMEM supplemented with 2% FBS per well). These cells are incubated for three days at 37°C in 5% CO2, then fixed for ELISA assay. The primary antibody is murine anti-VZV glycoprotein II monoclonal antibody (Applied Biosystems, Inc. #13-145-100) and the secondary antibody is goat anti-mouse IgG linked to β-galactosidase. Thus the extent of viral replication is determined by assessing β-galactosidase activity by quantifying the generation of the 4-methyl umbelliferone fluorescent cleavage product after addition of the methyl umbelliferyl-β-D-galactoside (Sigma #M1633) substrate on a microfluorimeter (365nm for excitation and 450nm for emission). Antiviral activity (IC50) of the test compound is determined by comparing the flourescence obtained in absence of compound to that obtained in the presence of compound.

Where [2] appears, read: read-out: IC50 ug/ml HCMV, HCMV, human foreskin fibroblasts.
Where [3] appears, read: Human alphaherpesvirus 3, HFF, read-out: % inhibition 10 ug/ml VZV.
[4] abbreviates: Human alphaherpesvirus 3, HFF, read-out: IC50 (ug/ml) VZV.
[5] abbreviates: Human alphaherpesvirus 3, read-out: % inhibition 10 ug/ml VZV, 10 ug/ml, VZV strain Ellen, HFF cells, ELISA.
[6] abbreviates: Human alphaherpesvirus 3, VZV strain Ellen, HFF cells, ELISA, read-out: IC50 (ug/ml) VZV.

`COc1cc(OC)c(NC(=S)Nc2ccc(NC(=O)c3ccccc3NC(C)=O)cc2)cc1Cl` [Example 189, 2-Acetylamino-N-{4-[3-(5-chloro-2,4-dimethoxy-phenyl)-thioureido]-phenyl}-benzamide]: the IC50 was 2.5 µg/mL (≈ 5.01 µM) in the test on HSV- I (HSV- I, Vero cells, ELISA); over 10 µg/mL in test [1] (setting [2]); over 10 µg/mL with VZV strain Ellen (setting [4]). Further, the inhibition at 10 µg/mL in the test with VZV strain Ellen (setting [3]) is 59%.
Regarding `COc1cc(OC)c(NC(=S)Nc2ccc(NC(=O)c3cccc([N+](=O)[O-])c3)cc2)cc1Cl` [Example 135, N-{4-[3-(5-Chloro-2,4-dimethoxy-phenyl)-thioureido]-phenyl}-3-nitro-benzamide], the IC50 is 1.5 µg/mL (≈ 3.08 µM) in the test on HSV- I (HSV- I, Vero cells, ELISA); 5 µg/mL (≈ 10.3 µM) in test [1] (setting [2]); over 10 µg/mL in the test on VZV strain Ellen (setting [4]). In the test with VZV strain Ellen (setting [3]), the inhibition at 10 µg/mL came to 0%.
Consider `O=C(Nc1ccc(NC(=S)Nc2cccc(CO)c2)cc1)c1ccccc1F` [Example 476, 2-Fluoro-N-{4-[3-(3-hydroxymethyl-phenyl)-thioureido]-phenyl}-benzamide], for which the IC50 with HSV- I (HSV- I, Vero cells, ELISA) was 10 µg/mL (≈ 25.3 µM); in test [1] (read-out: IC50 ug/ml HCMV), over 10 µg/mL; with VZV strain Ellen (setting [6]), over 10 µg/mL. Moreover, the inhibition at 10 µg/mL in the test on VZV strain Ellen (setting [5]) is 21%.
Take `O=C(Nc1ccc(NC(=S)Nc2ccc(OCC(F)(F)F)cc2OCC(F)(F)F)cc1)c1ccccc1F` [Example 1010, N-(4-{3-[2,4-Bis-(2,2,2-trifluoro-ethoxy)-phenyl]-thioureido}-phenyl)-2-fluoro-benzamide]: the IC50 in the test on HSV- I (HSV- I, Vero cells, ELISA) is over 10 µg/mL; in test [1] (read-out: IC50 ug/ml HCMV), over 10 µg/mL; with VZV strain Ellen (setting [6]), over 10 µg/mL.
With `CC(NC(=S)Nc1ccc(NC(=O)c2cnc3ccccc3c2)cc1)c1ccc(F)cc1` (stereo not drawn) [Example 988, Quinoline-3-carboxylic acid (4-{3-[1-(4-fluoro-phenyl)-ethyl]-thioureido}-phenyl)-amide], the IC50 is over 10 µg/mL in the test with HSV- I (HSV- I, Vero cells, ELISA); over 10 µg/mL in test [1] (setting [2]); 3.4 µg/mL (≈ 7.65 µM) with VZV strain Ellen (setting [4]).
Take `Cc1ccccc1C(C)NC(=S)Nc1ccc(NC(=O)c2ccccc2F)cc1` (stereo not drawn) [Example 775, 2-Fluoro-N-{4-[3-(1-o-tolyl-ethyl)-thioureido]-phenyl}-benzamide]: the IC50 with HSV- I (Vero) is over 10 µg/mL; in test [1] (setting [2]), 1 µg/mL (≈ 2.45 µM); in the test on VZV strain Ellen (Human alphaherpesvirus 3, HFF, read-out: IC50 (ug/ml) VZV, VZV strain Ellen, HFF cells, ELISA), over 7.5 µg/mL.
Regarding `CC(N=[N+]=[N-])c1ccc(NC(=S)Nc2ccc(NC(=O)c3ccccc3F)cc2)cc1Cl` (stereo not drawn) [Example 492, N-(4-{3-[4-(1-Azido-ethyl)-3-chloro-phenyl]-thioureido}-phenyl)-2-fluoro-benzamide], the IC50 in the test with HSV- I (HSV- I, Vero cells, ELISA) is over 10 µg/mL; in test [1] (setting [2]) it was 2 µg/mL (≈ 4.26 µM); with VZV strain Ellen (setting [4]), over 10 µg/mL. Further, the inhibition at 10 µg/mL with VZV strain Ellen (setting [3]) stood at 32%.
In the case of `COc1cc(OC)c(NC(=S)Nc2ccc(NC(=O)c3cccc4c3OCO4)cc2)cc1Cl` [Example 255, Benzo[1,3]dioxole-4-carboxylic acid {4-[3-(5-chloro-2,4-dimethoxy-phenyl)-thioureido]-phenyl}-amide], the IC50 in the test with HSV- I (HSV- I, Vero cells, ELISA) is 1.2 µg/mL (≈ 2.47 µM); in test [1] (setting [2]), over 10 µg/mL; with VZV strain Ellen (setting [4]), over 10 µg/mL. Moreover, the inhibition at 10 µg/mL in the test with VZV strain Ellen (setting [3]) was determined as 0%.
Consider `CCCCNS(=O)(=O)c1cccc(NC(=S)Nc2ccc(NC(=O)c3ccccc3F)cc2)c1` [Example 966, N-{4-[3-(3-Butylsulfamoyl-phenyl)-thioureido]-phenyl}-2-fluoro-benzamide], for which the IC50 with HSV- I (HSV- I, Vero cells, ELISA) was 7 µg/mL (≈ 14 µM); in test [1] (setting [2]), 2.5 µg/mL (≈ 4.99 µM); with VZV strain Ellen (setting [4]) it was 8 µg/mL (≈ 16 µM). Besides, in the test with VZV strain Ellen (setting [3]), the inhibition at 10 µg/mL is 95%.
Consider `O=C(Nc1ccc(NC(=S)Nc2cccc(C(F)(F)F)c2)cc1)c1ccccc1F` [Example 433, 2-Fluoro-N-{4-[3-(3-trifluoromethyl-phenyl)-thioureido]-phenyl}-benzamide], for which the IC50 with HSV- I (HSV- I, Vero cells, ELISA) is over 10 µg/mL; in test [1] (read-out: IC50 ug/ml HCMV) it was over 10 µg/mL; in the test on VZV strain Ellen (setting [6]), over 10 µg/mL. For the same compound, the inhibition at 10 µg/mL in the test on VZV strain Ellen (setting [5]) was found to be 0%.
On to `COc1cc(OC)c(NC(=S)Nc2ccc(NC(=O)c3ccccc3C)cc2)cc1Br` [Example 829, N-{4-[3-(5-Bromo-2,4-dimethoxy-phenyl)-thioureido]-phenyl}-2-methyl-benzamide], for which the IC50 with HSV- I (HSV- I, Vero cells, ELISA) was 0.25 µg/mL (≈ 0.5 µM); in test [1] (setting [2]) it was 10 µg/mL (≈ 20 µM); in the test on VZV strain Ellen (setting [4]), over 15 µg/mL. For the same compound, the inhibition at 10 µg/mL with VZV strain Ellen (setting [3]) amounted to 50%.
`COc1cc(OC)c(NC(=S)Nc2ccc(NC(=O)c3cccc(F)c3F)cc2)cc1Cl` [Example 186, N-{4-[3-(5-Chloro-2,4-dimethoxy-phenyl)-thioureido]-phenyl}-2,3-difluoro-benzamide]: the IC50 in the test on HSV- I (HSV- I, Vero cells, ELISA) was 0.2 µg/mL (≈ 0.418 µM); in test [1] (setting [2]), over 10 µg/mL; in the test on VZV strain Ellen (setting [4]), over 10 µg/mL. Further, in the test with VZV strain Ellen (setting [3]), the inhibition at 10 µg/mL was determined as 52%.
For the compound `COc1cc(OC)c(NC(=S)Nc2ccc(NC(=O)c3c(F)c(F)c(F)c(F)c3F)cc2)cc1Cl` [Example 193, N-{4-[3-(5-Chloro-2,4-dimethoxy-phenyl)-thioureido]-phenyl}-2,3,4,5,6-pentafluoro-benzamide], the IC50 in the test on HSV- I (HSV- I, Vero cells, ELISA) was 1.5 µg/mL (≈ 2.82 µM); in test [1] (setting [2]) it was over 10 µg/mL; in the test with VZV strain Ellen (setting [4]), 3.8 µg/mL (≈ 7.14 µM). In addition, in the test with VZV strain Ellen (setting [3]), the inhibition at 10 µg/mL turned out to be 106%.
On to `CC(=O)Nc1cccc(NC(=S)Nc2ccc(NC(=O)c3ccccc3F)cc2)c1` [Example 477, N-{4-[3-(3-Acetylamino-phenyl)-thioureido]-phenyl}-2-fluoro-benzamide], for which the IC50 in the test with HSV- I (HSV- I, Vero cells, ELISA) was over 10 µg/mL; in test [1] (read-out: IC50 ug/ml HCMV) it was over 10 µg/mL; in the test with VZV strain Ellen (setting [6]), over 10 µg/mL. For the same compound, the inhibition at 10 µg/mL in the test on VZV strain Ellen (setting [5]) was 15%.
Turning to `O=C(Nc1ccc(NC(=S)Nc2cccc(Cl)c2Cl)cc1)c1ccccc1F` [Example 927, N-{4-[3-(2,3-Dichloro-phenyl)-thioureido]-phenyl}-2-fluoro-benzamide], the IC50 in the test with HSV- I (Vero) turned out to be 5 µg/mL (≈ 11.5 µM); in test [1] (setting [2]), 2 µg/mL (≈ 4.6 µM).
Take `O=C(Nc1ccc(NC(=S)NCc2cccc(I)c2)cc1)c1ccccc1F` [Example 661, 2-Fluoro-N-{4-[3-(3-iodo-benzyl)-thioureido]-phenyl}-benzamide]: the IC50 in the test on HSV- I (HSV- I, Vero cells, ELISA) was over 10 µg/mL; in test [1] (read-out: IC50 ug/ml HCMV) it was over 0.5 µg/mL.
In the case of `O=C(Nc1ccc(NC(=S)NCCOc2cc(Cl)cc(Cl)c2)cc1)c1ccccc1F` [Example 664, N-(4-{3-[2-(3,5-Dichloro-phenoxy)-ethyl]-thioureido}-phenyl)-2-fluoro-benzamide], the results for the IC50 (in the test on HSV- I (Vero); in test [1] (setting [2])) were 10 µg/mL (≈ 20.9 µM) and over 0.5 µg/mL, respectively.
For `O=C(Nc1ccc(NC(=S)Nc2cccc(Cl)c2)cc1)c1ccccc1F` [Example 944, N-{4-[3-(3-Chloro-phenyl)-thioureido]-phenyl}-2-fluoro-benzamide], the IC50 was over 10 µg/mL in the test with HSV- I (Vero) and 3 µg/mL (≈ 7.5 µM) in test [1] (setting [2]).
For `O=C(Nc1ccc(NC(=S)NCCSc2cccc(Br)c2)cc1)c1ccccc1F` [Example 680, N-(4-{3-[2-(3-Bromo-phenylsulfanyl)-ethyl]-thioureido}-phenyl)-2-fluoro-benzamide] the same measures were over 10 µg/mL and over 0.5 µg/mL.
